Experimental data from patent publication US20020055639A1, “Pyrazole derivatives as herbicides” (priority 1997, published 2002).

Tests used:
Format in all cases: in vivo
Design in all cases: key: 1=total damage; 9=no action; Ratings of from 1 to 4 (especially from 1 to 3) indicate good to very good herbicidal action
Setaria [1] = test: Pre-emergence herbicidal action (Example B1); details: 2000 g a.i./ha, sprayed immediately after sowing, evaluated after 3 weeks, scale of nine ratings
Experimental: (§1) Monocotyledonous and dicotyledonous test plants are sown in standard soil in plastics pots. Immediately after sowing, the test compounds, each in the form of an aqueous suspension or emulsion prepared from a 25% emulsifiable concentrate (Example F1, c) in WO 97/34485, pages 9 and 10), are applied by spraying at a rate of application of 2000 g of active ingredient/ha (500 liters water/ha). The test plants are then grown in a greenhouse under optimum conditions. After 3 weeks' test duration, the test is evaluated in accordance with a scale of nine ratings (1=total damage, 9=no action). Ratings of from 1 to 4 (especially from 1 to 3) indicate good to very good herbicidal action.
(§2) Test plants: Avena, Setaria, Sinapis, Stellaria

Stellaria [2] = test: Pre-emergence herbicidal action (Example B1); details: 2000 g a.i./ha, sprayed immediately after sowing, evaluated after 3 weeks, scale of nine ratings
Experimental: as §1, §2

Sinapis [3] = test: Pre-emergence herbicidal action (Example B1); details: 2000 g a.i./ha, sprayed immediately after sowing, evaluated after 3 weeks, scale of nine ratings
Experimental: as §1, §2

Avena [4] = test: Pre-emergence herbicidal action (Example B1); details: 2000 g a.i./ha, sprayed immediately after sowing, evaluated after 3 weeks, scale of nine ratings
Experimental: as §1, §2

Setaria [5] = test: Post-emergence herbicidal action (Example B2); details: 2000 g a.i./ha, sprayed at 4- to 6-leaf stage, evaluated after approximately 18 days, scale of nine ratings
Experimental: (§3) Monocotyledonous and dicotyledonous test plants are grown in a greenhouse in plastics pots containing standard soil and at the 4- to 6-leaf stage are sprayed with an aqueous suspension or emulsion of the test substances of formula I, prepared from a 25% emulsifiable concentrate (Example F1, c) in WO 97/34485, pages 9 and 10), at a rate of application corresponding to 2000 g of active ingredient/ha (500 liters water/ha). The test plants are then grown on in the greenhouse under optimum conditions. After approximately 18 days' test duration, the test is evaluated in accordance with a scale of nine ratings (1=total damage, 9=no action). Ratings of from 1 to 4 (especially from 1 to 3) indicate good to very good herbicidal action.
as §2

Stellaria [6] = test: Post-emergence herbicidal action (Example B2); details: 2000 g a.i./ha, sprayed at 4- to 6-leaf stage, evaluated after approximately 18 days, scale of nine ratings
Experimental: as §3, §2

Sinapis [7] = test: Post-emergence herbicidal action (Example B2); details: 2000 g a.i./ha, sprayed at 4- to 6-leaf stage, evaluated after approximately 18 days, scale of nine ratings
Experimental: as §3, §2

Avena [8] = test: Post-emergence herbicidal action (Example B2); details: 2000 g a.i./ha, sprayed at 4- to 6-leaf stage, evaluated after approximately 18 days, scale of nine ratings
Experimental: as §3, §2

Compound	Pre-emergence action: Setaria (rating) (Setaria [1])	Pre-emergence action: Stellaria (rating) (Stellaria [2])	Pre-emergence action: Sinapis (rating) (Sinapis [3])	Pre-emergence action: Avena (rating) (Avena [4])	Post-emergence action: Setaria (rating) (Setaria [5])	Post-emergence action: Stellaria (rating) (Stellaria [6])	Post-emergence action: Sinapis (rating) (Sinapis [7])	Post-emergence action: Avena (rating) (Avena [8])
Cn1nc(-c2c(F)cc(Cl)c(=O)n2CC(=O)OCc2ccccc2)c(Cl)c1OC(F)F [Example 1.195]	1	1	1	3	1	1	1	1
Cn1nc(-c2c(Cl)cc(Cl)c(=O)n2CS(C)(=O)=O)c(Cl)c1OC(F)F [Example 1.152]	1	1	1	1	1	1	1	1
Cn1nc(-c2c(Cl)cc(Cl)c(=O)n2C)c(Cl)c1OC(F)F [Example 1.003]	1	1	1	1	1	1	1	1
C#CCn1c(-c2nn(C)c(C(F)(F)F)c2Br)c(F)cc(Cl)c1=O [Example 10.100]	1	1	1	1	2	1	1	1
Cn1nc(-c2c(F)cc(Cl)c(=O)n2CS(C)(=O)=O)c(Cl)c1OC(F)F [Example 1.153]	1	1	1	1	1	1	1	1
Cn1nc(-c2c(F)cc(Cl)c(=O)n2Cc2ccccc2)c(Cl)c1OC(F)F [Example 1.111]	1	1	1	2	1	2	1	2
C#CCn1c(-c2nn(C)c(OC(F)F)c2Cl)c(F)cc(Cl)c1=O [Example 1.100]	1	1	1	1	1	1	1	1
Cn1nc(-c2c(F)cc(Cl)c(=O)n2CC#N)c(Cl)c1OC(F)F [Example 1.126]	1	1	1	1	1	1	1	1
Cn1nc(-c2c(F)cc(Cl)c(=O)n2CCc2ccccc2)c(Cl)c1OC(F)F [Example 1.105]	1	1	1	1	2	1	1	1
C#CCn1c(-c2nn(CC)c(OC(F)F)c2Cl)c(F)cc(Cl)c1=O [Example 7.100]	1	1	1	1	1	1	1	1
C#CCn1c(-c2nn(C)c(S(C)(=O)=O)c2C)c(F)cc(Cl)c1=O [Example 28.100]	1	1	1	1	1	1	1	1
C=CCn1c(-c2nn(C)c(OC(F)F)c2Cl)c(F)cc(Cl)c1=O [Example 1.080]	1	1	1	1	1	1	1	1
C#CCn1c(-c2nn(C)c(C(F)(F)F)c2Cl)c(F)cc(Cl)c1=O [Example 9.100]	1	1	1	1	2	1	1	2
CCSCCn1c(-c2nn(C)c(OC(F)F)c2Cl)c(F)cc(Cl)c1=O [Example 1.156]	1	1	1	1	1	1	1	1
CCOC(=O)Cn1c(-c2nn(C)c(OC(F)F)c2Cl)c(F)cc(Cl)c1=O [Example 1.181]	1	1	1	1	1	1	1	1
CCS(=O)(=O)CCn1c(-c2nn(C)c(OC(F)F)c2Cl)c(F)cc(Cl)c1=O [Example 1.168]	1	1	1	1	1	1	1	1
Cn1nc(-c2c(F)cc(Cl)c(=O)n2C)c(Cl)c1OC(F)F [Example 1.002]	1	1	1	1	1	1	1	1
Cn1nc(-c2c(F)cc(Cl)c(=O)n2CCCc2ccccc2)c(Cl)c1OC(F)F [Example 1.106]	1	1	1	2	3	1	1	3
CCn1c(-c2nn(C)c(OC(F)F)c2Cl)c(F)cc(Cl)c1=O [Example 1.004]	1	1	1	1	2	1	1	1
